In assay [1] the test system is anti-peptide antibodies in sera of Dengue patients. Briefly: Indirect ELISA to detect anti-peptide antibodies, human sera. Format: binding. The note with it: 118 sera of Dengue patients diluted 1/200; for Percentage of positivity of human sera to peptide: peptide coated at 10 µg/ml. As for the experimental part: Peptides 19-6, 20-1, 20-2, 20-3 were fixed to the plates in a 10 m g/ml concentration in coating buff they were incubated at 4 C. overnight Sera were added diluted 1/200 in PBS-Tween 20. Finally, total human /peroxidase anti-immunoglobuline conjugate was added, and subsequently, the substrate (orthophenylendiamine, H2O2, 0.05 M phosphate citrate buffer, pH 5) was added. The reading was carried out in an ELISA reader at 492 nm and the cut-off value for each peptide was determined.
The sera used were from subjects having viral clinical infection that was serologically diagnosed as Dengue by the techniques of Inhibition of the hemagglutination (Clarke, D. H. y Casals, J. 1958. Techniques for hemagglutination and hemagglutination—inhibition with Arthropod Borne Virus. Am. J. Trop. Med. Hyg. 7 p.561) and ELISA of inhibition (Vzquez, S., Fernndez, R. 1989. Utilizacin de un mtodo de ELISA de Inhibicin en el diagnstico serolgico de dengue. Rev. Cub. Med. Trop. 41(1) p18-26) for total anti-dengue antibodies.
The study induded 118 sera from patents of the epidemics occurred in Cuba 1981, Panama 1994 and Costa Rica 1994. Dengue virus 2 was isolated in these epidemics, besides serotype 1 and 4 in Costa Rica; they were classified according to the titers of inhibiting antibodies of hemagglutination in cases of primary and secondary infections.
On the technique in general: An ELISA detects its analyte on a solid surface through an enzyme-linked reagent.

The test system of assay [2] is spleen T lymphocytes cultured with dengue 2 virus. Nature of the assay: In vitro blastogenesis assay of spleen T lymphocytes from peptide-immunized mice. The settings on record: mice immunized with non-conjugated peptides; cells cultured with dengue 2 virus. Format: cell-based, BALB/c mice. The procedure:
T cells from 19-6 and 19-5 immunized mice proliferated in an in vitro blastogenesis assay when they were cultured with the dengue 2 virus. […] It could contain a T cell cryptic epitope, being recognized in the free form of peptide but not like a result of the immunodominant epitopes presentation and processing of the virus in a natural infection.
FIG. 5. Proliferative response to dengue 2 virus antigens (at concentrations of 10, 20 and 40 m g/ml) of spleen T cells from peptides-immunized mice 19-6, 19-5 and 20-2.

Assay [3] concerns Dengue virus serotype 1 (D1). Nature of the assay: In vitro plaque-reduction neutralization test (PRNT) of anti-peptide sera, serotype D1. Type of assay: cell-based. The note with it: sera of Balb/c mice immunized with peptide-BSA conjugate; titer = dilution giving 50% plaque number reduction; BHK-21 cells. Background: In a plaque reduction assay, fewer plaques than in the control indicate reduced infectivity or spread.

For assay [4], the system named is Dengue virus serotype 3 (D3). Nature of the assay: In vitro plaque-reduction neutralization test (PRNT) of anti-peptide sera, serotype D3. Type of assay: cell-based. The note with it: sera of Balb/c mice immunized with peptide-BSA conjugate; titer = dilution giving 50% plaque number reduction; BHK-21 cells.
Assay [5] relates to live, mouse-adapted dengue-2 virus (strain A15). Briefly: Protection assay, intracranial challenge of immunized mice. Type of assay: in vivo, Balb/c mice. The note with it: mice immunized with conjugated peptides; 100 LD50 intracranial; observed up to 21 days; Fisher's test, p<0,05. As for the experimental part:
Male Balb/c mice of 4-6 weeks old were immunized with 50 mg of the peptide-BSA conjugate intraperitoneally. In addition, two immunization schemes were performed, one with BSA and the other with PBS. A total of 4 inoculations were carried out, each of them 15 days apart. The Freund's Complete Adjuvant was used in the first doses, and the Freund's Incomplete Adjuvant in the others. A blood sample was extracted from the retro-orbital vein seven days after the last inoculation.
Mice were challenged 7 days after the last immunization by intracraneal injection with an dilution of 1/2500 (corresponding to 100 LD50 lethal doses) of live, mouse-adapted dengue-2 virus (strain A15). […] Data were tested for statistical significance using Fisher's test.

Assay [6] concerns Dengue 2 virus (strain A 15). Briefly: In vitro plaque-reduction neutralization test (PRNT) of anti-peptide sera, serotype D2. Format: cell-based. The settings on record: sera of Balb/c mice immunized with peptide-BSA conjugate; titer = dilution giving 50% plaque number reduction; BHK-21 cells. As for the experimental part:
Neutralization technique was carried out according to Morens (Morens, D. M. et al. 1985. Simplified plaque reduction neutralization assay for dengue viruses by semimicro methods in BHK-21 cells: Comparison of the BHK suspension test with standard plaque reduction neutralization. J. Clin. Microbiol. 22 p.250).
Dilutions of anti-peptide sera and of anti-BSA controls and negative sera from 1/10 to 1/640 were prepared. Each dilution of sera was put into contact with a dilution of the virus (strain A 15 of Dengue 2) having 15-20 PFU/50 ml.
The mixture was incubated at 37 C. during 1 hour. A total of 50 ml of each mixture were added in triplicate to BHK-21 cells in plates of 24 wells, and they were incubated in a CO2 incubator at 37 C. during 4 hours. Then, 0.5 ml of carboxymethylcellulose-containing medium were added, and it was incubated again for several days considering the viral serotype used. After these days tinction and the count of lysis plaques produced by the virus were carried out.
Titer was expressed in each case as the dilution at which it was obtained the 50% of plaque number reduction.

Assay [7] deals with Dengue virus serotype 4 (D4). Nature of the assay: In vitro plaque-reduction neutralization test (PRNT) of anti-peptide sera, serotype D4. Format: cell-based. The settings on record: sera of Balb/c mice immunized with peptide-BSA conjugate; titer = dilution giving 50% plaque number reduction; BHK-21 cells.
Assay [8] relates to four Dengue virus serotypes. Briefly: Induction of neutralizing antibodies (summary statement). The settings on record: against the four Dengue virus serotypes; immunized mice. Format: cell-based. The procedure:
Peptides were inoculated in Balb/c mice both conjugated or not to a carrier protein. The sera obtained after immunization with the conjugated peptides were tested by in vitro neutralization by reducing the number of plaques and by ELISA. We also studied the active protection against a Dengue 2 viral challenge in the immunized mice.

The next assay concerns synthetic peptides. Briefly: ELISA of sera from mice immunized with fusion proteins, against the synthetic peptides. Format: binding. The note with it: mouse immunization with semipurified fusion proteins. From the text:
Mouse immunization with PD33 and PD34 fusion proteins semipurified by a non-denaturalizing protocol, has elicited high titers against them in ELISA (up to 1/100 000), and at the same time antibodies with titers up to 1/4000 in ELISA against the synthetic peptides have been obtained.

6 molecules from US6383488B1, “Pre-M/M epitopes of dengue virus, synthetic peptides, chimeric proteins and their use” (priority 1997, dated 2002) can be followed below.

“Also recorded” adds a separate entry of the source.

On to CEDTITYKCPLLRQNEPEDIDCW [B 20-2], for which, in assay [1], the “Average of the reactivity index (optical density of the sample/cut-off value)” value came out at 1.57 and the “Percentage of positivity of human sera to peptide” value (from here on “Percentage”) was 77.1%. Besides, the “Virus-specific proliferative response of spleen T lymphocytes” value (“Virus-specific proliferative response” for short) in [2] is listed as “did not elicit a significant proliferative response”.
Regarding LTTRNGEPHMIVMRQEKGKSLLFKTGDGV [B 19-6], the “Anti-peptide neutralization titer, D1” value in [3] is recorded as 1/100. In addition, the “Anti-peptide neutralization titer, D3” value in assay [4] is 1/60. Also, the “Level of protection (survival) after Dengue 2 virus challenge” value (from here on “Level of protection (survival)”) in [5] is “statistically significant; also recorded: statistically significative level of protection”. For the same molecule, in assay [6], the “Anti-peptide neutralization titer, D2” value is recorded as 1/180. In addition, in assay [1], the “Average of the reactivity index (optical density of the sample/cut-off value)” value is given as 1.07 and the “Percentage” value stood at 56.8%. Further, the “Anti-peptide neutralization titer, D4” value in [7] is 1/160. In [8], the “Induction of neutralizing antibody production” value is reported as “able to induce neutralizing antibody production”. The “Virus-specific proliferative response” value in assay [2] is “Virus-specific proliferative responses were demonstrated; also recorded: proliferated”.
For NSTSTWVTYGTCTTTGEHRREKRSV [B 20-1], the “Level of protection (survival)” value in [5] is on record as “statistically significant; also recorded: statistically significative level of protection”. In addition, in assay [1], the “Average of the reactivity index (optical density of the sample/cut-off value)” value was 1.52 and the “Percentage” value is listed as 79.6%.
For the molecule “RQNEPEDIDCWCNSTSTWVTYGTCTTTGEHRREKRS [B 19-5]”, the “Level of protection (survival)” value in assay [5] is recorded as “statistically significant; also recorded: statistically significative level of protection”. Besides, the “Virus-specific proliferative response” value in [2] is “Virus-specific proliferative responses were demonstrated; also recorded: proliferated”.
Take LETRTETWMSSEGAWKHAQRIE [B 20-3]: the “Anti-peptide neutralization titer, D1” value in assay [3] was 1/110. Also, the “Anti-peptide neutralization titer, D3” value in [4] is reported as 1/80. The “Anti-peptide neutralization titer, D2” value in assay [6] is given as 1/80. In [1], the “Average of the reactivity index (optical density of the sample/cut-off value)” value stood at 1.49 and the “Percentage” value is listed as 83.1%. For the same molecule, the “Anti-peptide neutralization titer, D4” value in [7] was 1/80. In assay [8], the “Induction of neutralizing antibody production” value is “able to induce neutralizing antibody production”.

B1: PD33 (protein)
chain: MALVELKVPDIGGHENVDIIAVEVNVGDTIAVDDTLITLDLESVALTPHSGMGLETRAETWMSSEGAWKHAQRVESWILRNPRFLEMDVPAEVAGVVKEVKVKVGDKISEGGLIVVVEAEGTAAAPKAEAAAAPAQEAPKAAAPAPQAAQFGGSADAEYDVVVLGGGPGGYSAAFAAADEGLKVAIVERYKTLGGVCLNVGCIPSKALLHNAAVIDEVRHLAANGIKYPEPELDIDMLRAYKDGVVSRLTGGLAGMAKSRKVDVIQGDGQFLDPHHLEVSLTAGDAYEQAAPTGEKKIVAFKNCIIAAGSRVTKLPFIPEDPRIIDSSGALALKEVPGKLLIIGGGIIGLEMGTVYSTLGSRLDVVEMMDGLMQGADRDLVKVWQKQNEYRFDNIMVNTKTVAVEPKEDGVYVTFEGANAPKEPQRYDAVLVAAGRAPNGKLISAEKAGVAVTDRGFIEVDKQMRTNVPHIYAIGDIVGQPMLAHKAVHEGHVAAENCAGHKAYFDARVIPGVAYTSPEVAWVGETELSAKASGRKITKANFPWAASGRAIANGCDKPFTKLIFDAETGRIIGGGIVGPNGGDMIGEVCLAIEMGCDAADIGKTIHPHPTLGESIGMAAEVALGTCTDLPPQKKK
In the case of B1, the “ELISA antibody titers against the synthetic peptides” value in the assay with synthetic peptides is on record as “up to 1/4000”.
